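1) Cells in 96-well plates. 2) Compound, 48 h, 5 concentrations. 3) Linear interpolation between surrounding doses. 4) Unreached endpoint = highest concentration. At the GI50, growth is halved.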 Activity calls are given as the source filed them. No stated cut-off is given here; in the data, active = GI50 up to about 1.1 µM and inactive = higher.
Assays:
Test in all cases: growth of human tumour cells (NCI), 48 h
SK-MEL-5 = system: SK-MEL-5
M14 = system: M14
RXF 393 = system: RXF 393
NCI-H522 = system: NCI-H522
UO-31 = system: UO-31
RPMI-8226 = system: RPMI-8226
SK-MEL-28 = system: SK-MEL-28
U-251 = system: U-251
MOLT-4 = system: MOLT-4
SR = system: SR
SK-OV-3 = system: SK-OV-3
NCI-H23 = system: NCI-H23
SW-620 = system: SW-620
HOP-92 = system: HOP-92
SF-539 = system: SF-539
OVCAR-4 = system: OVCAR-4

Measured: GI50

CC1=NN(c2ccccc2)C(=O)C1=C1SCCCS1
inactive: SK-MEL-5 31.2 µM | M14 49.4 µM | RXF 393 28.5 µM | NCI-H522 18.1 µM | UO-31 34.2 µM | RPMI-8226 19.7 µM | SK-MEL-28 48.6 µM | U-251 18.1 µM | MOLT-4 16 µM | SR 14.3 µM | SK-OV-3 46.3 µM | NCI-H23 29.2 µM | SW-620 13.2 µM | HOP-92 25.5 µM

COc1ccccc1/N=C(\N)N/N=C/c1c[nH]c2ccccc12
inactive: SF-539 13.5 µM | SK-MEL-5 2.78 µM | OVCAR-4 16.8 µM | M14 3.25 µM | RXF 393 14.1 µM | NCI-H522 3.65 µM | UO-31 13.3 µM | RPMI-8226 3.13 µM | SK-MEL-28 3.57 µM | U-251 11.6 µM | MOLT-4 3.13 µM | SR 5.01 µM | SK-OV-3 15.6 µM | NCI-H23 4.79 µM | SW-620 2.72 µM

N#C/C(=C/Sc1ccccc1)C(=O)O
inactive: SF-539 18.2 µM | SK-MEL-5 29.6 µM | OVCAR-4 40.7 µM | M14 22 µM | RXF 393 14.3 µM | NCI-H522 10.9 µM | UO-31 12.6 µM | RPMI-8226 24.5 µM | SK-MEL-28 24.5 µM | U-251 13.5 µM | MOLT-4 14.9 µM | SR > 100 µM | SK-OV-3 59.4 µM | NCI-H23 45.1 µM | SW-620 41.2 µM | HOP-92 57.7 µM

CCOP(=O)(OCC)C1CC(C)OC1=O (configuration not stated)
inactive: SF-539 > 100 µM | SK-MEL-5 > 100 µM | OVCAR-4 > 100 µM | M14 > 100 µM | RXF 393 > 100 µM | UO-31 > 100 µM | RPMI-8226 > 100 µM | SK-MEL-28 > 100 µM | U-251 > 100 µM | MOLT-4 > 100 µM | SK-OV-3 > 100 µM | NCI-H23 > 100 µM | SW-620 > 100 µM

Nc1ccc(C(=O)NN2C(=O)C(Cl)C2c2cccc([N+](=O)[O-])c2)cc1 (configuration not stated)
inactive: SF-539 20.7 µM | SK-MEL-5 19.2 µM | OVCAR-4 16.4 µM | M14 23 µM | NCI-H522 12 µM | UO-31 17.4 µM | RPMI-8226 23.2 µM | SK-MEL-28 21 µM | U-251 13.9 µM | MOLT-4 15.1 µM | SK-OV-3 18.7 µM | NCI-H23 16.4 µM | SW-620 21.7 µM | HOP-92 21.4 µM

COC(=O)/C(Cl)=C1/CC1COCc1ccccc1 (configuration not stated)
inactive: SF-539 23.8 µM | SK-MEL-5 24.1 µM | OVCAR-4 31 µM | M14 17 µM | RXF 393 18.9 µM | NCI-H522 20.3 µM | UO-31 28.8 µM | RPMI-8226 19.5 µM | SK-MEL-28 21.8 µM | MOLT-4 19.8 µM | SK-OV-3 > 100 µM | NCI-H23 31.5 µM | SW-620 21.1 µM | HOP-92 22.9 µM

Clc1ccc(C2=NN(c3ccccc3)C3c4cc(Br)ccc4OCC23)cc1 (configuration not stated)
inactive: SF-539 > 100 µM | SK-MEL-5 59.7 µM | RXF 393 61.1 µM | NCI-H522 > 100 µM | UO-31 > 100 µM | RPMI-8226 11.6 µM | SK-MEL-28 > 100 µM | U-251 67.3 µM | MOLT-4 40.9 µM | SK-OV-3 > 100 µM | NCI-H23 86.9 µM | SW-620 > 100 µM | HOP-92 > 100 µM

COc1ccc(S(=O)(=O)NC(C)C(=O)O)cc1 (configuration not stated)
inactive: SF-539 > 100 µM | SK-MEL-5 > 100 µM | OVCAR-4 > 100 µM | M14 > 100 µM | RXF 393 > 100 µM | NCI-H522 > 100 µM | UO-31 > 100 µM | RPMI-8226 > 100 µM | SK-MEL-28 > 100 µM | U-251 > 100 µM | MOLT-4 > 100 µM | SK-OV-3 > 100 µM | NCI-H23 > 100 µM | SW-620 > 100 µM | HOP-92 > 100 µM

O=C1C(Cl)C(c2ccc([N+](=O)[O-])cc2)N1n1cnc2ccccc2c1=O (configuration not stated)
inactive: SK-MEL-5 57 µM | OVCAR-4 5.64 µM | M14 32.3 µM | RXF 393 23.6 µM | NCI-H522 49.8 µM | UO-31 71 µM | RPMI-8226 > 10 µM | SK-MEL-28 24.1 µM | U-251 47.8 µM | MOLT-4 49.1 µM | SK-OV-3 9.75 µM | NCI-H23 32.6 µM | SW-620 97.7 µM

From ChEMBL document CHEMBL1201862, “PubChem BioAssay data set” (2004)
